Results from patent US20180333427A1, “ANTI-FATIGUE COMPOSITION AND USE THEREOF” (CHENGZHI LIFE SCIENCE., LTD., priority 2013, published 2018).

Tested on: fatigue mice
Assay: Weight loading swimming test of fatigue mice (Example 1)
Assay type: in vivo, ICR male mice
Settings: for restoration of energy / strength in the state of fatigue: control group glucose 1 g/kg; for swimming time of fatigue mice: intragastric, daily dose in three times, swimming continued for three days, ribose 2.5 g/kg, caffeine 75 mg/kg, ribose 1250 mg/kg+caffeine 40 mg/kg
Description: The mice swim with the load twice every day, respectively in the morning and afternoon. The sum of the swimming times is recorded as the swimming time for one day. The average of the swimming times for the last two days is taken as a reference, and the mice are kept swimming every day until the day in which the swimming time is below 80% of the reference, and that is considered as fatigue. […] The respective agents are given by intragastric administration with a dosage of 0.2 ml/10 g, and the daily dose is given in three times. The mice are administrated with the agents 30 minutes before swimming in the morning and afternoon, respectively, and administrated again when the furs of the mice dry after swimming in the afternoon. The mice are continued to swim for three days under the prior condition as described in Section 1.2. After swimming, the respective agents are continually administered to the mice 3 times/day for 3 days, except those to be sampled immediately, then taken as materials. […] The swimming time for each group on day 0 is set for 1, the swimming time for each group on day 1, 2 and 3 is compared to that on day 0 respectively, and thereby the change rate (%) is obtained.

SMILES	restoration of energy / strength in the state of fatigue (fatigue mice)	swimming time of fatigue mice	anti-fatigue effect (fatigue mice, weight loading swimming, three days)
O=C[C@H](O)[C@H](O)[C@H](O)CO [ribose, D-ribose]	restore energy more quickly than the control group	increased with the extension of training time	
Cn1c(=O)c2c(ncn2C)n(C)c1=O [caffeine]	restore some strength in a short time but increase fatigue with the extension of time	shortened with the extension of training time	does not produce sustained anti-fatigue effect
